Experimental data reported in patent EP3551232B1, “STABLE F-DOPA FORMULATIONS AND USES THEREOF” (priority 2016, dated 2018).

How the values were obtained:
[1] = amount of F-DOPA dissolved in the formulation compositions; assay type: physicochemical; conditions: in the ND1, ND2 and ND3 compositions
Description: Optimum stability for F-DOPA in aqueous formulations is achieved by maintaining the pH at acidic values, by excluding oxygen and incorporating in the formula a chelating agent for metal ion initiators of free-radical oxidation reactions. […] In order to formulate F-DOPA at the optimum acidic pH range, the appropriate buffer was selected. Lactate buffer (1 mM, pH 5.0) was chosen to formulate the parenteral solution, firstly because lactic acid is currently used in intravenous solutions and is already present in commercial formulation and, secondly, because this solution has a pH value compatible with the direct infusion avoiding or minimizing the pain at the injection site. Finally, common methods for decelerating the initiation step require eliminating initiators and catalysts from the formulation. Metals ions can be sequestered by the use of chelators, such as EDTA, citric acid and tartaric acid. […] For comparison purposes the ND3 formulation, having the same commercially available formulation "master formula", was also prepared by solubilizing F-DOPA in an aqueous solution of 17.5 mM acetic acid (1.05 mg/mL, pH = 3.1). In order to mimic the commercial formulation, immediately before its use the pH of ND3 was adjusted to a higher pH value (measured pH = 7.2) by the addition of 100 µL per mL of a sterile solution of 1 M (84 mg/mL) sodium bicarbonate. […]

[2] = cell viability assay, fiber counting (mortality rate); conditions: male, C57BL6, mouse
Description: (§1) Single fibers were isolated from the Flexor Digitorum Brevis (FDB) muscles dissected from male C57BL6 mice (N° of mice = 3). Isolated fibers were obtained by incubating the FDB muscles with Dulbecco's modified Eagle's medium (DMEM+) solution composed by IX antibiotics (1%), L-glutamine (1%), FBS (10%) (EuroClone, S.p.A. Milan, Italy) enriched with 0.3 mg/ml collagenase type XI-S (Sigma Chemical Co.).
(§2) For "in vitro" cell viability tests, the F-DOPA powder was directly solubilized in the complete cell culture medium (DMEM+). Stock solutions of ND1, ND2 and ND3 formulations were prepared at the concentration of 10 mg/ml. Microliter amounts of the stock solutions were then added to DMEM as needed, to obtain the final concentrations.
(§3) The fibers were plated, counted under a microscope, and incubated for 3h with increasing concentrations of F-DOPA, ND1, ND2 and ND3 formulations and an imaging analysis was then performed. At the end of the incubation time, the cytotoxicity expressed as mortality rate with respect to the control condition was evaluated by counting the fibers before and after the incubation period.
(§4) The mortality rate of the fibers and cells was calculated by the following equation: [(Ntreated/NCTRL)×100]−100 [formula] where Ntreated is the number of the treated cells and NCTRL is the number of untreated cells.
(§5) The following three parametric logistic function was used to fit the concentrationmortality data of different F-DOPA formulations: percentage change of the mortality rate(%) = Emax ((1+EC50/DOSE))^slope [formula] where Emax, is the maximal drug effect; EC50, is the concentration needed to cause the 50% percent change of the maximal effect; DOSE, is the applied concentration; slope, is the hill slope of the curve (SIGMAPlot 10.0, Systat Software, Inc.).

[3] = test system: mouse skeletal muscle fibers; assay: as above; conditions: Mus musculus
Description: as §1, §2, §3, §4, §5

[4] = UV-Vis absorbance stability in sterile physiological solution; assay type: physicochemical
From the text: This behavior was further supported by monitoring the change in UV-Vis absorbance of a pH 6.4 sterile physiological solution containing F-DOPA. […]

[5] = in situ FT-IR monitoring of F-DOPA degradation in aqueous solution; assay type: physicochemical
Description: Aimed at better understanding the nature of the F-DOPA degradation products, the progress of the oxidation of F-DOPA was investigated by in situ FT-IR experiments at pH 8.0 and 5.15 at 25 °C (Figure 3).
Nevertheless, an overlapping of the carbonyl and carboxyl groups in the range 1670-1650 cm^-1 of the postulated o-quinone derivatives (Scheme 1) should occur in aqueous solution. However, similar o-quinone species show typical bands at 1660, 1480 and 1380 cm^-1, and are known to be very unstable turning black the solution upon standing. […] Thus, in situ IR experiments confirm the long-time stability of F-DOPA in acidic conditions (pH < 5.15) and the high propensity to undergo degradation under basic conditions. The pH-rate profile was carried out in order to obtain kinetic data.
The degradation pathway and the progress of the F-DOPA oxidation in aqueous solutions were further investigated by in situ FT-IR experiments at pH 8.0 and 5.15 at 25 °C. The experiments were carried out using a Mettler-Toledo ReactIR 4000 and Ic15 instruments equipped with a diamond-tipped (DiComp®) probe (Spectra elaborated with ConcIR® software), monitoring the C=O stretching of the F-DOPA and following new absorptions likely related to oxidized products (Castagnolo, D. et al. 2015; Mansueto, R. et al 2014). In a Schlenk tube equipped with a stirring bar and the React-IR probe, a 0.02 M F-DOPA aqueous solution at pH 5.15 was introduced via syringe at room temperature. Reference spectra for the pure solvent and F-DOPA were collected separately before starting the experiments. The solution was stirred for 10 min, to verify the stability of the readout, and spectra collected every 30 sec. The solution was then stirred for 24 h and constantly monitored by IR spectroscopy.

[6] = enantioselective HPLC (optical stability, racemization); assay type: physicochemical; conditions: 4 mg/mL, 24 h at both 25 and 45 °C, sterile perfusion solution at pH 6.0
Description: The HPLC system used to check the chemical stability of F-DOPA, related to its possible oxidation and racemization, consisted of a Waters Associates (Milford, MA, USA) model 1515 equipped with an isocratic pump, a Waters 2487 UV-vis detector, and the Breeze Software to analyze the chromatographic data. The HPLC analysis were performed on a reverse-phase column (Agilent Zorbax SB-Aq C8; 150 x 4.6 mm - 5 µm) kept at room temperature using detection wavelengths of 200 and 280 nm. The mobile phase consisted of 6.9 g/L solution of sodium dihydrogen phosphate adjusted to pH 2.4 with a 4.8 g/L solution of phosphoric acid, and the flow rate was 1 mL/min. The standard injection volume was 20 µL. […] To evaluate optical stability of F-DOPA, chromatograms were recorded on a teicoplanin aglycone-based chiral stationary phase (250 × 4.6 mm, particle size 5 µm, pore size 8 nm) CHIROBIOTIC (ASTEC, Whippany, NJ, USA), by eluting with a mixture 80% acetonitrile and 20% water, at a flow rate of 1 mL/min and a temperature of 25 °C.

## N[C@@H](Cc1cc(O)c(O)cc1F)C(=O)O [F-DOPA, (2S)-2-Amino-3-(6-fluoro-3,4-dihydroxyphenyl)propanoic acid]
[1]
  F-DOPA dissolved per mL: 10 mg/mL
[2]
  mortality at 3 h, 0.02 mg/ml: < 15%
  mortality at 3 h, 0.05 mg/ml: > 50%
[3]
  Emax: 100%
[3]; 3 h
  EC50: 185 µM
[4]; pH 6.4, degassed sterile 0.9% NaCl, 1 to 4 mg/mL, 25 or 45 °C, 6 h, absorbance at 298 nm
  decrease in F-DOPA initial concentration: less than 5%
[4]; pH 6.4, sterile 0.9% NaCl, after 24 h incubation
  colour of sample: pale pink color
[5]; buffer at pH = 8.0, within 2 h, 25 °C
  loss of vC=O absorbance: 10%
[5]; pH 5.15, after 16 h, 25 °C
  additional peaks in the range 1800-1200 cm^-1 (FT-IR): no additional peaks
[5]; stirring at pH = 8.0 for 24 h
  appearance of the transparent aqueous solution: turned to black
[6]
  racemization: no racemization occurs
